# Measurements: patent US10610520B2, “Heterocyclic compound” (Takeda Pharmaceutical Company Limited, priority 2016, dated 2020)
# System: intracerebral 2-AG and arachidonic acid
# Assay: Measurement of intracerebral 2-AG and arachidonic acid concentrations after oral administration
# Assay type: in vivo, C57BL/6J mice
# Conditions: for 2-AG concentration / arachidonic acid concentration: cerebrum, male C57BL/6J mice, 3 mg/kg by gavage; for 2-AG concentration: control 9.9; for arachidonic acid concentration: control 163.5; for migration into brain: oral administration to C57BL/6J mice, 3 mg/kg
# Procedure: As the mouse, 8-week-old male C57BL/6J mice (CLEA Japan, Inc.) were used (6 mice/group). Administration solutions were prepared by suspending the test compounds (compound 1 (compound of Example 279), compound 2 (compound of Example 361) and compound 3 (compound of Example 362)) in 0.5% methylcellulose solution (Wako Pure Chemical Industries, Ltd.). The dose of the test compound was prepared to be 3 mg/kg body weight/10 mL. The test compounds were administered by gavage at 3 mg/kg body weight. The cerebrum was isolated after the administration of the test compound (isolation time after the administration of the test compound is shown in Table 3), and the cerebrum hemisphere was extracted. The obtained cerebrum hemisphere was frozen on dry ice, and the frozen tissue weight was measured.
# The cerebral tissue weight was measured, and cerebral tissue was homogenized with 4-fold (v/w) of isopropanol (IPA), and double diluted with IPA. To the diluted sample (200 μL) was added internal standard solution (5 μL) ([5,6,8,9,11,12,14,15-D8]-(5Z,8Z,11Z,14Z)5,8,11,14-eicosatetraenoic acid (AA-d8, 0.5 nmol/mL IPA) and [5,6,8,9,11,12,14,15-D8]-(5Z,8Z,11Z,14Z)-5,8,11,14-eicosatetraenoyl-2-glycerol ester (2-AG-d3, 0.5 nmol/mL IPA)), and the mixture was centrifuged at 15000 rpm for 5 min. The supernatant was injected to liquid chromatography mass spectrometer to perform quantitative analysis.
# For liquid chromatography, Shimadzu LC20A system (Shimadzu Corporation) was used. The separation was performed by gradient elution method with mobile phase A (10 mmol/L HCOONH4/HCOOH (100:0.2, v/v)) and mobile phase B (ethanol/IPA (3:2, v/v)) using Shim-pack XR-ODS (2.2 μm, 2.0×30 mm, Shimadzu Corporation) at column temperature of 50° C., at flow rate of 0.5 mL/min. The gradient conditions are as follows: 0-1 min, 1% B; 1-1.2 min, 1-55% B; 1.2-2.7 min, 55-75% B; 2.7-3.5 min, 75-99% B; 3.5-6 min, 99% B; 6-8 min, 1% B.
# For mass spectrometer, API5000 (AB SCIEX) was used. The eluate from the liquid chromatography was directly ionized by turbospray ionization method, where (5Z,8Z,11Z,14Z)5,8,11,14-eicosatetraenoic acid (AA) and AA-d8 were measured by negative ionization mode, and (5Z,8Z,11Z,14Z)5,8,11,14-eicosatetraenoyl-2-glycerol ester (2-AG) and 2-AG-d3 were measured by positive ionization mode.
# A solution for calibration curve was prepared to the concentration of 2, 5, 10, 20, 50, 100, 200, 500, 1000 nmol/mL of acetonitrile. These solutions (10 μL) was mixed with 200 μL of IPA and 5 μL of internal standard solution, and the mixture was centrifuged at 15000 rpm for 5 min, and the supernatant was injected to liquid chromatography mass spectrometer to perform analysis. The calibration curve was drawn by regression line with a weighting of 1/x^2, and the quantitativity was confirmed by accuracy of 100±20% and R^2>0.99.
# [1] = isolation 1 hour after administration
# [2] = isolation 2 hour after administration
Compound,2-AG concentration [1] [nmol/g],arachidonic acid concentration [1] [nmol/g],migration into brain,2-AG concentration [2] [nmol/g],arachidonic acid concentration [2] [nmol/g]
"O=C1NC2(CO1)CN(C(=O)c1sc3cc(F)cc(F)c3c1Cl)C2 [compound 3, 2-((3-chloro-4,6-difluoro-1-benzothiophen-2-yl)carbonyl)-7-oxa-2,5-diazaspiro[3.4]octan-6-one]",25.7,156.1,migrated into brain,–,–
"O=C1NC2(CO1)CN(C(=O)c1sc3c(F)c(OC(F)(F)F)ccc3c1Cl)C2 [compound 1, 2-((3-chloro-7-fluoro-6-(trifluoromethoxy)-1-benzothiophen-2-yl)carbonyl)-7-oxa-2,5-diazaspiro[3.4]octan-6-one]",–,–,migrated into brain,73.2,109.4
"O=C1NC2(CO1)CN(C(=O)c1sc3cc(F)ccc3c1Cl)C2 [compound 2, 2-((3-chloro-6-fluoro-1-benzothiophen-2-yl)carbonyl)-7-oxa-2,5-diazaspiro[3.4]octan-6-one]",30.2,151.8,migrated into brain,–,–
